# Values of other authors in patent publication US7314882B2, “Bicyclic heterocycles as cannabinoid receptor modulators” (Bristol-Myers Squibb Company, priority 2005, dated 2008).
# Test system: body weight
# Details: 16 week trial period
smiles,measurement,value
Cc1c(C(=O)NN2CCCCC2)nn(-c2ccc(Cl)cc2Cl)c1-c1ccc(Cl)cc1 [SR-141716],body weight in human subjects,dose-dependently reduced body weight
